Reference: publication PMC3407958 (Pharmacotherapy, 2010)
Like-named read-outs stand apart in the source and are kept apart here. Marks after values point to notes of the source that are not given here.

Key:
[1] = human, in vivo
CYP3A = format: in vivo, human (healthy volunteers); conditions: for Cl/F / AUC(0-inf): geometric mean (90% CI); for AUC(0-inf): AUC0-∞, midazolam 8 mg single oral dose
[2] = system: intestinal and hepatic CYP3A; conditions: cited from earlier work
[3] = three weeks of garlic caplet supplementation; cited from earlier work
clinical = conditions: human, in vivo
[4] = human, in vivo; remark: listed apart in the source
[5] = Post-Echinacea/Pre-Echinacea, GMR (90% CI)
[6] = Post-Echinacea/Pre-Echinacea, GMR (90% CI), listed as Midazolam
[7] = midazolam 8 mg oral, 28 days of echinacea, P > 0.05

Structure (SMILES): CC(C)c1nc(CN(C)C(=O)N[C@H](C(=O)N[C@@H](Cc2ccccc2)C[C@H](O)[C@H](Cc2ccccc2)NC(=O)OCc2cncs2)C(C)C)cs1 [ritonavir]
- T ½ [1]: 5.34 (4.46–6.22) hr
- Tmax [1]: 1.8 (0–4.0) ^c hr

Structure (SMILES): Cc1ncc2n1-c1ccc(Cl)cc1C(c1ccccc1F)=NC2 [midazolam]
- Cl/F (CYP3A; Post-Echinacea (28 days), midazolam 8 mg oral): 77 (55–98) mL/hr
- Tmax (CYP3A; Post-Echinacea (28 days), midazolam 8 mg oral, median (range)): 0.5 (0.5–1.5) ^c hr
- AUC0-∞ geometric mean ratio (CYP3A; [5]): 0.73 (0.61, 0.85)
- Cl/F geometric mean ratio (CYP3A; [5]): 1.37 (1.10, 1.63)
- Cmax geometric mean ratio (CYP3A; [5]): 0.77 (0.58–0.96)
- T ½ geometric mean ratio (CYP3A; [5]): 0.55 (0.40, 0.70)
- AUC0-∞ geometric mean ratio (CYP3A; [6]): 0.73 (0.61–0.85)
- Cl/F geometric mean ratio (CYP3A; [6]): 1.37 (1.10–1.63)
- T ½ geometric mean ratio (CYP3A; [6]): 0.55 (0.40–0.70)
- Cl/F (CYP3A; Pre-Echinacea, midazolam 8 mg oral): 56 (46–66) mL/hr
- Change in midazolam exposure after E purpurea (CYP3A; after 28 days of E purpurea, P = 0.008): −27%
- Increase in midazolam apparent oral clearance after E purpurea (CYP3A; after 28 days of E purpurea, P = 0.02): 37%
- Reduction of midazolam half-life after E purpurea (CYP3A; after 28 days of E purpurea, P = 0.051): 45%
- Tmax (CYP3A; human, plasma, po, 8 mg): 0.5 h
- AUC(0-inf) (CYP3A; human, plasma, po, 8 mg, Post-Echinacea (28 days, 500 mg three times daily)): 0.104 µg·h/mL
- AUC(0-inf) (CYP3A; human, plasma, po, 8 mg, Pre-Echinacea): 0.143 µg·h/mL
- Change of Cmax after echinacea administration (CYP3A; [7]): unchanged
- Change of Tmax after echinacea administration (CYP3A; [7]): unchanged
- Increase in intestinal availability of midazolam ([2]; after E purpurea 1600 mg total daily dose for 8 days): 85%
- Increase in oral availability of midazolam ([2]; after echinacea 400 mg 4 times daily for 8 days, P = 0.028): ~43%

Structure (SMILES): CC(C)(C)NC(=O)[C@@H]1C[C@@H]2CCCC[C@@H]2CN1C[C@@H](O)[C@H](Cc1ccccc1)NC(=O)[C@H](CC(N)=O)NC(=O)c1ccc2ccccc2n1 [saquinavir]
- Decrease in AUC of saquinavir [3]: 51%

Structure (SMILES): Cc1cccc(C)c1OCC(=O)N[C@@H](Cc1ccccc1)[C@@H](O)C[C@H](Cc1ccccc1)NC(=O)[C@H](C(C)C)N1CCCNC1=O [lopinavir]
- T ½ [1]: 9.5 (7.4–11.6) hr
- Tmax (clinical): 2 h
- Tmax [4]: 2 h
